Assays:
Assay in all cases: relative viability (nuclei count vs DMSO), 5 days (fraction); higher = more cells survive
VX-11e + Luminespib = compound: CC1=CN=C(N=C1C2=CNC(=C2)C(=O)N[C@H](CO)C3=CC(=CC=C3)Cl)NC4=C(C=C(C=C4)F)Cl [VX-11e] + CCNC(=O)c1noc(-c2cc(C(C)C)c(O)cc2O)c1-c1ccc(CN2CCOCC2)cc1 [Luminespib] (partner 0.01 µM)
Method in brief: (§1)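 Relative viability is defined as nuclei in treated wells over nuclei in vehicle wells. Duplicate plates were run and medians reported. Lung cancer cell lines in 1536-well plates were dosed by pin tool one day after seeding, with one drug or with a fixed anchor-drug dose plus five library-drug doses (not always all listed) in √10 steps, and nuclei were counted after 5 days.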

VX-11e + Foretinib = compound: CC1=CN=C(N=C1C2=CNC(=C2)C(=O)N[C@H](CO)C3=CC(=CC=C3)Cl)NC4=C(C=C(C=C4)F)Cl [VX-11e] + COc1cc2c(Oc3ccc(NC(=O)C4(C(=O)Nc5ccc(F)cc5)CC4)cc3F)ccnc2cc1OCCCN1CCOCC1 [Foretinib] (partner 0.25 µM)
Method in brief: as §1

VX-11e + Navitoclax = compound: CC1=CN=C(N=C1C2=CNC(=C2)C(=O)N[C@H](CO)C3=CC(=CC=C3)Cl)NC4=C(C=C(C=C4)F)Cl [VX-11e] + CC1(C)CCC(c2ccc(Cl)cc2)=C(CN2CCN(c3ccc(C(=O)NS(=O)(=O)c4ccc(N[C@H](CCN5CCOCC5)CSc5ccccc5)c(S(=O)(=O)C(F)(F)F)c4)cc3)CC2)C1 [Navitoclax] (partner 0.5 µM)
Method in brief: as §1

VX-11e + Linsitinib = compound: CC1=CN=C(N=C1C2=CNC(=C2)C(=O)N[C@H](CO)C3=CC(=CC=C3)Cl)NC4=C(C=C(C=C4)F)Cl [VX-11e] + C[C@]1(O)C[C@@H](c2nc(-c3ccc4ccc(-c5ccccc5)nc4c3)c3c(N)nccn32)C1 [Linsitinib] (partner 1 µM)
Method in brief: as §1

Cell Line	relative viability (VX-11e + Luminespib; first compound 0.04 µM)	relative viability (VX-11e + Luminespib; first compound 0.1265 µM)	relative viability (VX-11e + Luminespib; first compound 0.4 µM)	relative viability (VX-11e + Luminespib; first compound 1.265 µM)	relative viability (VX-11e + Luminespib; first compound 4 µM)	relative viability (VX-11e + Foretinib; first compound 0.04 µM)	relative viability (VX-11e + Foretinib; first compound 0.1265 µM)	relative viability (VX-11e + Foretinib; first compound 0.4 µM)	relative viability (VX-11e + Foretinib; first compound 1.265 µM)	relative viability (VX-11e + Foretinib; first compound 4 µM)	relative viability (VX-11e + Navitoclax; first compound 0.04 µM)	relative viability (VX-11e + Navitoclax; first compound 0.1265 µM)	relative viability (VX-11e + Navitoclax; first compound 0.4 µM)	relative viability (VX-11e + Navitoclax; first compound 1.265 µM)	relative viability (VX-11e + Navitoclax; first compound 4 µM)	relative viability (VX-11e + Linsitinib; first compound 0.04 µM)	relative viability (VX-11e + Linsitinib; first compound 0.1265 µM)	relative viability (VX-11e + Linsitinib; first compound 0.4 µM)	relative viability (VX-11e + Linsitinib; first compound 1.265 µM)	relative viability (VX-11e + Linsitinib; first compound 4 µM)
A-427	1.05	0.865	0.642	0.687	0.483	1.14	1.01	0.835	0.805	0.342	0.999	0.88	0.796	0.585	0.268	1.14	1.08	1.01	0.888	0.466
BEN		0.241	0.475	0.376	0.264		0.633	0.966	0.451	0.557	0.0581	0.0703	0.0708	0.061	0.0537	1.04	0.701	0.923	0.54	0.783
CAL-12T	0.392	0.434	0.462	0.433	0.276	1.1	1.03	1.07	1.07	0.561	1.14	1.3	1.09	1.2	0.422	0.873	0.816	0.765	0.465	0.282
COR-L23	0.787	0.577	0.5	0.532	0.234	1.1	0.939	0.964	0.749	0.373	1.25	1.13	0.924	0.681	0.305	1.04	0.905	0.816	0.508	0.248
COR-L 105	0.978	0.391	0.825	0.592	0.375	1.39	1.1	0.963	0.562	0.653	0.591	0.759	0.55	0.692	0.284	1.04	0.946	0.568	0.571	0.267
EKVX	0.714	0.894	0.723	0.85	0.52	0.765	0.927	0.812	0.675	0.466	0.847	0.935	0.926	0.831	0.601	1.01	0.971	1.05	0.87	0.559
EMC-BAC-2	1.21	1.19	1.2	1.19	0.924	1.05	0.921	1.08	0.982	0.697	1.22	1.11	0.994	0.927	0.833	0.831	0.74	0.743	0.712	0.602
EPLC-272H	0.173	0.302		0.293	0.148	0.622	0.559		0.361	0.261	1.09	1.02	1.01	0.82	0.668	0.923	1.04	0.927	0.934	0.562
H3255	0.773	0.963	0.819	0.686	0.89	0.734	0.963	0.87	0.918	0.948	0.526	0.451	0.657	0.614	0.496	1.01	0.815	0.971	0.956	0.879
HARA	0.677	0.609	0.637	0.695	0.297	0.857	0.856	0.841	0.734	0.343	1.16	1.1	1.13	1.13	0.968	1.01	0.9	1.02	1.04	0.417
HCC-15	0.264	0.363	0.207	0.18	0.175	1.07	0.897		0.558	0.357	0.711	0.649	0.53	0.317	0.196	0.868	0.815	0.746	0.497	0.217
HCC-827	0.605	0.422	0.616	0.826	0.477	1.07	1.09	1.04	1.13	0.739	1.07	1.02	0.992	1.24	0.919	0.967	0.934	0.975	1.12	0.859
HOP-62	1.01	0.843	0.946	0.687	0.406	1.22	1.03	1.16	0.859	0.589	0.992	0.891	1.02	0.46	0.582	0.903	0.773	0.973	0.831	0.226
LC-2-ad	1.18	0.947	0.633	0.883	0.815	0.883	0.822	0.983	0.747	0.673	0.463	0.375	0.362	0.372	0.248	0.831	0.852	0.787	0.572	0.508
LCLC-97TM1	0.781	0.693	0.615	0.393	0.263	0.955	0.811	0.826	0.455	0.332	0.492	0.463		0.408	0.157	0.158	0.172		0.203	0.116
LK-2	0.197	0.198	0.193	0.182	0.183	1.1	1.3	1.18	0.643	0.817	0.893	0.732	0.781	0.738	0.86	0.774	0.672	0.555	0.205	0.313

Source: the supplement of paper PMC10307832
